Where “and” joins values, the source holds several entries; their conditions need not be identical. Equal values may be shown once. Inconclusive results and toxic doses are left out.
System: CD2F1 mice, L1210 leukemia ip, survival T/C
Assay: NCI In Vivo Anticancer Drug Screen. Data for tumor model L1210 Leukemia (intraperitoneal) in CD2F1 (CDF1) mice
Settings: higher = longer survival
In short: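 Each value reflects a quotient of treated over vehicle control outcomes in mice with a transplanted tumor.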

[1] = endpoint: mean survival time, dose: 100.0 mg/kg/injection, schedule: Q01DX009 (ip), vehicle: saline with Tween-80
[2] = endpoint: mean survival time, dose: 200.0 mg/kg/injection, schedule: Q01DX009 (ip), vehicle: saline with Tween-80
[3] = endpoint: mean survival time, dose: 400.0 mg/kg/injection, schedule: Q01DX009 (ip), vehicle: saline with Tween-80
[4] = endpoint: mean survival time, dose: 100.0 mg/kg/injection, schedule: Q04DX003 (ip), vehicle: saline with Tween-80
[5] = endpoint: mean survival time, dose: 200.0 mg/kg/injection, schedule: Q04DX003 (ip), vehicle: saline with Tween-80
[6] = endpoint: mean survival time, dose: 400.0 mg/kg/injection, schedule: Q04DX003 (ip), vehicle: saline with Tween-80
[7] = endpoint: mean survival time, dose: 100.0 mg/kg/injection, schedule: Q04DX002 (ip), vehicle: saline with Tween-80
[8] = endpoint: mean survival time, dose: 200.0 mg/kg/injection, schedule: Q04DX002 (ip), vehicle: saline with Tween-80
[9] = endpoint: mean survival time, dose: 400.0 mg/kg/injection, schedule: Q04DX002 (ip), vehicle: saline with Tween-80

CC(/C=C/C1OC(=O)C=CC1C)=C\C(C)C/C=C/C(C)=C/C(C)C(=O)C(C)C(O)C(C)C/C(C)=C/C(=O)O (stereo not given)
T/C (endpoint: median survival time, dose: 9.0 micrograms/kg/injection, schedule: Q01DX009 (ip), vehicle: saline + alcohol): 106 % of control | T/C (endpoint: median survival time, dose: 15.0 micrograms/kg/injection, schedule: Q01DX009 (ip), vehicle: saline + alcohol): 119 % of control | T/C (endpoint: median survival time, dose: 18.0 micrograms/kg/injection, schedule: Q01DX005 (ip), vehicle: alcohol): 110 % of control | T/C (endpoint: median survival time, dose: 18.0 micrograms/kg/injection, schedule: Q01DX005 (ip), vehicle: saline + alcohol): 106 % of control | T/C (endpoint: median survival time, dose: 25.0 micrograms/kg/injection, schedule: Q01DX009 (ip), vehicle: saline + alcohol): 117 % of control | T/C (endpoint: median survival time, dose: 30.0 micrograms/kg/injection, schedule: Q01DX005 (ip), vehicle: alcohol): 110 % of control | T/C (endpoint: median survival time, dose: 30.0 micrograms/kg/injection, schedule: Q01DX005 (ip), vehicle: saline + alcohol): 107 % of control | T/C (endpoint: median survival time, dose: 50.0 micrograms/kg/injection, schedule: Q01DX005 (ip), vehicle: alcohol): 115 % of control | T/C (endpoint: median survival time, dose: 50.0 micrograms/kg/injection, schedule: Q01DX005 (ip), vehicle: saline + alcohol): 108 % of control | T/C (endpoint: median survival time, dose: 83.33 micrograms/kg/injection, schedule: Q01DX005 (ip), vehicle: alcohol): 115 % of control | T/C (endpoint: median survival time, dose: 83.33 micrograms/kg/injection, schedule: Q01DX005 (ip), vehicle: saline + alcohol): 116 % of control | T/C (endpoint: median survival time, dose: 138.89 micrograms/kg/injection, schedule: Q01DX005 (ip), vehicle: alcohol): 122 % of control | T/C (endpoint: median survival time, dose: 138.89 micrograms/kg/injection, schedule: Q01DX005 (ip), vehicle: saline + alcohol): 111 % of control

COc1ccc(NCCOc2ccccc2Br)cc1
T/C (endpoint: mean survival time, dose: 100.0 mg/kg/injection, schedule: Q04DX003 (ip), vehicle: other): 97 % of control | T/C (endpoint: mean survival time, dose: 200.0 mg/kg/injection, schedule: Q04DX003 (ip), vehicle: other): 101 % of control | T/C (endpoint: mean survival time, dose: 400.0 mg/kg/injection, schedule: Q04DX003 (ip), vehicle: other): 95 % of control

C#CCCCOC(=O)Nc1ccccc1
T/C (endpoint: mean survival time, dose: 100.0 mg/kg/injection, schedule: Q04DX003 (ip), vehicle: Klucel (hydroxypropylcellulose) (HPC)): 97 % of control | T/C (endpoint: mean survival time, dose: 200.0 mg/kg/injection, schedule: Q04DX003 (ip), vehicle: Klucel (hydroxypropylcellulose) (HPC)): 95 % of control

COC(=O)[C@@]12OC[C@]34[C@H]([C@@H](O)[C@@H]1O)[C@@]1(C)CC(=O)C(OC(=O)CC(=O)OC5=C(C)[C@@H]6C[C@H]7OC(=O)[C@H](OC(=O)/C=C(\C)C(C)C)[C@H]8[C@]9(C(=O)OC)OC[C@]78[C@H]([C@@H](O)[C@@H]9O)[C@@]6(C)CC5=O)=C(C)[C@@H]1C[C@H]3OC(=O)[C@H](OC(=O)/C=C(\C)C(C)C)[C@@H]24
T/C (endpoint: median survival time, dose: 0.37 mg/kg/injection, schedule: Q01DX009 (ip), vehicle: saline + Tween-80 + alcohol): 113 % of control | T/C (endpoint: median survival time, dose: 0.38 mg/kg/injection, schedule: Q01DX009 (ip), vehicle: saline + Tween-80 + alcohol): 112 % of control | T/C (endpoint: median survival time, dose: 0.75 mg/kg/injection, schedule: Q01DX009 (ip), vehicle: saline + Tween-80 + alcohol): 115 % of control and 121 % of control | T/C (endpoint: median survival time, dose: 1.5 mg/kg/injection, schedule: Q01DX009 (ip), vehicle: saline + Tween-80 + alcohol): 121 % of control and 112 % of control

O=C(NNC(=O)c1ccccc1Cl)Nc1ccc(F)c(Cl)c1
T/C [1]: 91 % of control | T/C [2]: 86 % of control | T/C [3]: 87 % of control

Fc1c(F)c(F)[c]([Sn]([c]2ccccc2)([c]2ccccc2)[c]2ccccc2)c(F)c1F
T/C (endpoint: mean survival time, dose: 12.5 mg/kg/injection, schedule: Q04DX003 (ip), vehicle: saline with Tween-80): 88 % of control | T/C (endpoint: mean survival time, dose: 25.0 mg/kg/injection, schedule: Q04DX003 (ip), vehicle: saline with Tween-80): 88 % of control

O=C(CC(=O)CC(O)(C(F)(F)F)C(F)(F)F)CC(O)(C(F)(F)F)C(F)(F)F
T/C (endpoint: mean survival time, dose: 5.0 mg/kg/injection, schedule: Q04DX003 (ip), vehicle: saline): 100 % of control | T/C (endpoint: mean survival time, dose: 10.0 mg/kg/injection, schedule: Q04DX003 (ip), vehicle: saline): 96 % of control

Oc1c(Br)cc(Br)c(O)c1Br
T/C [4]: 97 % of control | T/C [5]: 95 % of control

Cc1ccc(-c2nc3ncnc(N)c3[nH]2)cc1[N+](=O)[O-]
T/C (endpoint: mean survival time, dose: 37.5 mg/kg/injection, schedule: Q01DX001 (ip), vehicle: saline with Tween-80): 101 % of control | T/C (endpoint: mean survival time, dose: 75.0 mg/kg/injection, schedule: Q01DX001 (ip), vehicle: saline with Tween-80): 90 % of control | T/C (endpoint: mean survival time, dose: 150.0 mg/kg/injection, schedule: Q01DX001 (ip), vehicle: saline with Tween-80): 88 % of control

CC(=O)OC(OC(C)=O)c1cccc([N+](=O)[O-])c1
T/C [1]: 102 % of control | T/C [2]: 93 % of control | T/C [3]: 96 % of control

O=c1c2ccccc2sc2cccc(Sc3ccccc3)c12
T/C [4]: 95 % of control | T/C [5]: 96 % of control | T/C [6]: 91 % of control

CC1C(=O)OC2C1CCC1(C)C=CC(=O)C(C)(Cl)C21O (stereo not given)
T/C [7]: 100 % of control | T/C [8]: 100 % of control | T/C [9]: 91 % of control and 87 % of control

O=C(O)CCCCCNCC(CNCCCCCC(=O)O)(C(=O)O)C(=O)O
T/C [7]: 104 % of control | T/C [8]: 96 % of control | T/C [9]: 111 % of control

CC1=NNC(=O)C1CCO (stereo not given)
T/C (endpoint: median survival time, dose: 25.0 mg/kg/injection, schedule: Q01DX009 (ip), vehicle: Klucel (hydroxypropylcellulose) (HPC)): 103 % of control | T/C (endpoint: median survival time, dose: 50.0 mg/kg/injection, schedule: Q01DX009 (ip), vehicle: Klucel (hydroxypropylcellulose) (HPC)): 100 % of control | T/C (endpoint: median survival time, dose: 100.0 mg/kg/injection, schedule: Q01DX009 (ip), vehicle: Klucel (hydroxypropylcellulose) (HPC)): 98 % of control | T/C (endpoint: median survival time, dose: 200.0 mg/kg/injection, schedule: Q01DX009 (ip), vehicle: Klucel (hydroxypropylcellulose) (HPC)): 102 % of control | T/C (endpoint: median survival time, dose: 400.0 mg/kg/injection, schedule: Q01DX009 (ip), vehicle: Klucel (hydroxypropylcellulose) (HPC)): 103 % of control | T/C (endpoint: median survival time, dose: 800.0 mg/kg/injection, schedule: Q01DX009 (ip), vehicle: Klucel (hydroxypropylcellulose) (HPC)): 104 % of control

COc1ccc2c(c1)-c1nn(CCCN(C)C)c3ccc([N+](=O)[O-])c(c13)N2
T/C (endpoint: median survival time, dose: 3.12 mg/kg/injection, schedule: Q01DX005 (ip), vehicle: water): 152 % of control | T/C (endpoint: median survival time, dose: 3.12 mg/kg/injection, schedule: Q01DX009 (ip), vehicle: water): 168 % of control | T/C (endpoint: median survival time, dose: 6.25 mg/kg/injection, schedule: Q01DX005 (ip), vehicle: water): 152 % of control | T/C (endpoint: median survival time, dose: 6.25 mg/kg/injection, schedule: Q01DX009 (ip), vehicle: water): 216 % of control | T/C (endpoint: median survival time, dose: 7.5 mg/kg/injection, schedule: Q01DX005 (ip), vehicle: water): 164 % of control | T/C (endpoint: median survival time, dose: 12.5 mg/kg/injection, schedule: Q01DX005 (ip), vehicle: water): 180 % of control | T/C (endpoint: median survival time, dose: 12.5 mg/kg/injection, schedule: Q01DX009 (ip), vehicle: water): 113 % of control | T/C (endpoint: median survival time, dose: 20.83 mg/kg/injection, schedule: Q01DX005 (ip), vehicle: water): 225 % of control | T/C (endpoint: median survival time, dose: 25.0 mg/kg/injection, schedule: Q01DX005 (ip), vehicle: water): 109 % of control | T/C (endpoint: median survival time, dose: 34.72 mg/kg/injection, schedule: Q01DX005 (ip), vehicle: water): 107 % of control | T/C (endpoint: median survival time, dose: 50.0 mg/kg/injection, schedule: Q01DX005 (ip), vehicle: water): 92 % of control and 94 % of control | T/C (endpoint: median survival time, dose: 50.0 mg/kg/injection, schedule: Q01DX009 (ip), vehicle: water): 116 % of control

CN1CCc2cc(O)cc3c2C1Cc1ccc(O)c(O)c1-3 (stereo not given)
T/C (endpoint: mean survival time, dose: 25.0 mg/kg/injection, schedule: Q04DX003 (ip), vehicle: DMSO): 101 % of control | T/C (endpoint: mean survival time, dose: 50.0 mg/kg/injection, schedule: Q04DX003 (ip), vehicle: DMSO): 101 % of control | T/C (endpoint: mean survival time, dose: 100.0 mg/kg/injection, schedule: Q04DX003 (ip), vehicle: DMSO): 101 % of control | T/C (endpoint: mean survival time, dose: 200.0 mg/kg/injection, schedule: Q04DX003 (ip), vehicle: DMSO): 102 % of control | T/C (endpoint: mean survival time, dose: 200.0 mg/kg/injection, schedule: Q04DX003 (ip), vehicle: water): 105 % of control | T/C (endpoint: mean survival time, dose: 400.0 mg/kg/injection, schedule: Q04DX003 (ip), vehicle: water): 102 % of control | T/C (endpoint: mean survival time, dose: 600.0 mg/kg/injection, schedule: Q04DX003 (ip), vehicle: water): 102 % of control

CC(=O)OCC1OC(c2nn(C(C)=O)c(C(N)=O)c2O)C(OC(C)=O)C1OC(C)=O (stereo not given)
T/C (endpoint: median survival time, dose: 25.0 mg/kg/injection, schedule: Q01DX005 (ip), vehicle: saline): 153 % of control | T/C (endpoint: median survival time, dose: 50.0 mg/kg/injection, schedule: Q01DX005 (ip), vehicle: saline): 166 % of control | T/C (endpoint: median survival time, dose: 100.0 mg/kg/injection, schedule: Q01DX005 (ip), vehicle: saline): 96 % of control

Cc1nc2c(N)nn(C)c2nc1C
T/C [4]: 95 % of control | T/C [5]: 101 % of control | T/C [6]: 101 % of control

CCOC(=O)NS(=O)(=O)Nc1ccccc1
T/C [1]: 104 % of control | T/C [2]: 102 % of control | T/C [3]: 96 % of control
